Test results: ChEMBL document CHEMBL1148124, “New lanostanoids, elfvingic acids A-H, from the fruit body of Elfvingia applanata” (J Nat Prod, 2002)
≈ marks a conversion by molar mass, not a printed value.

Key:
[1] = Cytotoxicity against human KATO III cells after 72 hrs by MTT assay; assay type: functional, cell-based, KATO III cell
Ehrlich = experiment: Cytotoxicity against mouse Ehrlich cells after 72 hrs by MTT assay; assay type: functional, cell-based

Row | SMILES | IC50 [1] | IC50 (Ehrlich)
1 | CC(C)c1cccc(=O)c(O)c1 [HINOKITIOL] | 0.6 µg/mL (≈ 3.65 µM) | 0.6 µg/mL (≈ 3.65 µM)
2 | C=C(C)[C@@H]1C[C@H]2O[C@@]23C(=CC(=O)[C@]2(C)[C@@H](/C(C)=C\C(O)CC(C)C(=O)O)C[C@@H](O)[C@]23C)[C@@]1(C)CCC(=O)OC (some centres undefined) | 1.1 µg/mL (≈ 2.02 µM) | 1.1 µg/mL (≈ 2.02 µM)
